{
  "source": "paper PMC9570413",
  "about": "“A New Phospholipase D from Moritella sp. JT01: Biochemical Characterization, Crystallization and Application in the Synthesis of Phosphatidic Acid” (International Journal of Molecular Sciences, 2022)",
  "molecular_target": "T1, MsPLD (phospholipase D from Moritella sp. JT01) (Moritella sp. JT01, UniProt A0A137SLD1)",
  "T1 construct": "gene AKG98_3441; precursor 578 residues; C-terminal 6xHis (pET-21a); E. coli SHuffle T7; about 62 kDa",
  "T1 sequence (A0A137SLD1 29-578)": "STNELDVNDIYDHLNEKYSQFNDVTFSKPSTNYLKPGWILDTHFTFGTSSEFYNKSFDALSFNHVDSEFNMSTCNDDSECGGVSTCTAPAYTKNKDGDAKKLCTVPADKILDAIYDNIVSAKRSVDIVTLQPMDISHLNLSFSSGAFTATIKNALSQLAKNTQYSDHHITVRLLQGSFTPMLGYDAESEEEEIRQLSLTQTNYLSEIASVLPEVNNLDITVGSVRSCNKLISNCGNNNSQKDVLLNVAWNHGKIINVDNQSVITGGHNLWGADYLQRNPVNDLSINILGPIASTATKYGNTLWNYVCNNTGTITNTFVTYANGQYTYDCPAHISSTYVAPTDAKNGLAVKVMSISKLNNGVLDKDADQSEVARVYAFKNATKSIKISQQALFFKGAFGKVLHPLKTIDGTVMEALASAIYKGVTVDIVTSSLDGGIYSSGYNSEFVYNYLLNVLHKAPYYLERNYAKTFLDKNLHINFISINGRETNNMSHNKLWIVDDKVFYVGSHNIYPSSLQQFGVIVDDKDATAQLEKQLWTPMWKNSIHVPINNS",
  "assay": "enzyme-linked colorimetry (choline oxidase/peroxidase), Michaelis-Menten",
  "assay_type": "biochemical",
  "conditions": "0.1 M Tris-HCl pH 8.0, 35 °C, SDS and Triton X-100 in assay mixture; 0.5-8.0 mM PC; natural soybean PC, acyl chains not defined (class of species, no single structure)",
  "experimental": "enzyme-linked colorimetry (choline oxidase/peroxidase), Michaelis-Menten on MsPLD (phospholipase D from Moritella sp. JT01) | the kinetic parameters of MsPLD to soy PC were determined",
  "data": [
    {"substance": "L-α-phosphatidylcholine from soybean", "values": [
      {"measurement": "Km", "value": "3.44 ± 0.81", "unit": "mM"}
    ]}
  ]
}
